Reference: patent US11413242B2, “Formulations of Tie-2 activators and methods of use thereof” (EyePoint Pharmaceuticals, Inc., priority 2019, dated 2022)

Assays:
[1] = Intraocular pressure at Baseline and Months 1-3, Compound 1 with sham or RBZ, or placebo with RBZ (TABLE 1, FIG. 2); type: in vivo
Method: The difference in IOP was determined relative to a pre-treatment baseline (Base) at months 1, 2, and 3 (M1-M3). Intraocular pressure was determined in the study eye in millimeters of mercury (mmHg).
The difference in IOP was determined relative to a pre-treatment Baseline at Months 1, 2, and 3. Intraocular pressure was determined in the study eye/fellow eye in mmHg.

[2] = tested on: patients with diabetic macular edema; assay: Change in intraocular pressure from baseline, Compound 1 BID at varying doses, 28 Day EOT (FIG. 1); type: in vivo, human; settings: doses greater than 15 mg BID
Method: The difference in IOP was determined at the end of the trial, which was 28 days after treatment began (28 Day EOT). Changes in IOP were determined both in the study eye and the fellow eye.

COC(=O)N[C@@H](Cc1ccccc1)C(=O)N[C@@H](Cc1ccc(NS(=O)(=O)O)cc1)c1csc(-c2cccs2)n1 [Compound 1]
IOP, fellow eye ([1]; Month 1): 14.5 mmHg
IOP, fellow eye ([1]; Month 2): 14.3 mmHg
IOP, fellow eye ([1]; Month 3): 14.0 mmHg
IOP, fellow eye ([1]; pre-treatment Baseline): 15.4 mmHg
IOP, study eye ([1]; Month 1): 14.8 mmHg
IOP, study eye ([1]; Month 2): 14.4 mmHg
IOP, study eye ([1]; Month 3): 14.3 mmHg
IOP, study eye ([1]; pre-treatment Baseline): 15.8 mmHg
effect on intraocular pressure (IOP) relative to pre-treatment baseline [2]: decreased IOP
